Laboratory results: article PMC8269107, “Lipidation of Temporin-1CEb Derivatives as a Tool for Activity Improvement, Pros and Cons of the Approach” (International Journal of Molecular Sciences, 2021)
≈ marks a conversion by molar mass, not a printed value. Where two headings read alike, the source gives them in different places. Where a SMILES comes first, the peptide text is derived from it. [ ]: non-standard residue; d: D form. The star is where a group is joined. Palmitoyl = CCCCCCCCCCCCCCCC(=O)*; Lauroyl = CCCCCCCCCCCC(=O)*; Pentanoyl = CCCCC(=O)*; AEEA = NCCOCCOCC(=O)O; Ahx = NCCCCCC(=O)O; βAla = NCCC(=O)O

Columns and labels:
C.krusei CCM 8271 = assay: MIC, broth microdilution; assay type: cell-based, Candida krusei; conditions: C.krusei CCM 8271, 24 h
Text: (§1) Escherichia coli (PCM 2057 = ATCC 25922), Staphylococcus aureus (PCM 2054 = ATCC 25923), Staphylococcus epidermidis (PCM 2118 = ATCC 14990), Bacillus subtilis (PCM 2224 = ATCC 9799), Bacillus cereus (PCM 482 = ATCC 10702) and Pseudomonas aeruginosa (PCM 499 = ATCC 10145) were obtained from the Polish Collection of Microorganisms. Fungi strains Candida albicans (CCM 8186 = CNTC 49/64), Candida glabrata (CCM 8270 = ATCC 90030), Candida parapsilosis (CCM 8260 = ATCC 22019) and Candida krusei (CCM 8271 = ATCC 6258) were acquired from the Czech Collection of Microorganisms. S. aureus USA300 (wild type strain), the reference strain of Klebsiella pneumoniae (ATCC 13883) and clinical isolates of Pseudomonas aeruginosa (PA1, PA2) collected from nonrelated patients admitted to the Stefan Zeromski Specialist Municipal Hospital in Krakow (Poland) were kindly provided by the research group of the Department of Microbiology, Faculty of Biochemistry, Biophysics and Biotechnology, Jagiellonian University, Krakow, Poland.
(§2) Luria-Bertani broth (LB) and Sabouraud Dextrose broth (SB) (Biocorp, Poland) were used for cultivation of bacteria and fungi strains, respectively. The antimicrobial activity of the peptides were analyzed through determination of MIC (minimal inhibitory concentration) parameters according to Clinical and Laboratory Standards (CLSI) guidelines developed for aerobic bacteria and yeasts, respectively. Mueller-Hinton broth (MHB) was used as the working medium for all bacterial strains, while in the case of fungi, RPMI-1640 (with L-glutamine, without sodium bicarbonate) growth medium buffered with MOPS (morpholinepropanesulfonic acid) and supplemented with 2% glucose was used. Inoculum was prepared from freshly grown cultures of microorganisms at their exponential phase of growth. […] Plates were then incubated for 24 h at 37 °C in the case of bacteria and at 35 °C in the case of fungi. After that time, absorbance was read at 590 nm with a Perkin Elmer plate reader. Cultures without peptide were treated as positive control, while uninoculated media were defined as negative control. All measurements were run at least in triplicate.

B. subtilis PCM 2224 = assay: MIC, broth microdilution; assay type: cell-based, Bacillus subtilis; conditions: B. subtilis PCM 2224, 24 h
Text: as §1, §2

[1] = tested on: C. albicans (CCM 8186) biofilm; assay: Biofilm inhibition assay (MTT); assay type: cell-based, Candida albicans; conditions: C. albicans biofilm development, 24 h post-inoculation
Method: In the case of bacteria, an overnight culture of S. aureus in Tryptic Soy Broth (TSB) supplemented with 2% glucose (TSB/+G) was used to prepare inoculum for the experiments. Briefly, 5 mL of 24 h culture was centrifuged at 5000× g, washed with sterile PBS and suspended in a fresh 2 × concentrated TSB/+G. In the case of yeasts, the overnight culture of C. albicans in Sabouraud dextrose broth (SB) was used for inoculum preparation. Similar to above, 5 mL of 24 h culture was centrifuged, washed with PBS and then suspended in sterile 2 × concentrated RPMI-1640 medium (with L-glutamine, without sodium bicarbonate) supplemented with 2% glucose (RPMI-1640/+G). In both cases, the cell concentration of the inoculum was about 1 × 10^7 cells per ml.
For the determination of the inhibitory concentration that reduced biofilm development by 50% (BIC50^, expressed in µg/mL), 100 µL inoculum in 2 × concentrated RPMI-1640/+G medium (in the case of C. albicans) or 2 x concentrated TSB/+G broth (in the case of S. aureus) was transferred to each well of 96-well plates containing 100 µL of serially diluted in water tested compounds. The final concentrations of the compounds were the same as those used in MIC determination studies. The 96-well plates were then incubated for 24 h at 37 °C and 35 °C in the case of bacteria and fungi, respectively. Viability of the microorganisms in the presence of the tested compounds was analyzed by means of MTT assay.
The reduction in biofilm viability was analyzed by means of MTT assay. Briefly, 20 μL of MTT solution (5 mg/mL in PBS) was added to prewashed wells with exchanged medium (180 μL of fresh medium) wells containing bacterial/yeast biofilms. Plates were then incubated in the dark for the next 3 h at 37 °C. After that time, the medium was replaced with 6 mM HCl in isopropanol and, when the reduced MTT was fully dissolved, the plates were read at 570 nm. Activity against fully developed 24 h old biofilm was described as biofilm eradication concentration (BEC50 expressed in µg/mL), which corresponded to the concentration of the compound able to reduce 50% of biofilm viability compared with the growth control.

C.albicans CCM 8186 = assay: MIC, broth microdilution; assay type: cell-based, Candida albicans; conditions: C.albicans CCM 8186, 24 h
Text: as §1, §2

B. cereus PCM 482 = assay: MIC, broth microdilution; assay type: cell-based, Bacillus cereus; conditions: B. cereus PCM 482, 24 h
Text: as §1, §2

S. aureus USA300 = assay type: cell-based, Staphylococcus aureus
Text: as §1, §2

P. aeruginosa PA2 = assay type: cell-based, Pseudomonas aeruginosa
Text: as §1, §2

P. aeruginosa PA1 = assay type: cell-based, Pseudomonas aeruginosa
Text: as §1, §2

K.pneumoniae ATCC 13883 = assay type: cell-based, Klebsiella pneumoniae
Text: as §1, §2

[2] = P. aeruginosa PA2 clinical isolate
[3] = P. aeruginosa PA1 clinical isolate

Structure (SMILES) | MIC100 (C.krusei CCM 8271) | MIC100 (B. subtilis PCM 2224) | BIC50 [1] | MIC100 (C.albicans CCM 8186) | MIC100 (B. cereus PCM 482) | MIC100 (S. aureus USA300) | MIC100 (P. aeruginosa PA2; [2]) | MIC100 (P. aeruginosa PA1; [3]) | MIC100 (K.pneumoniae ATCC 13883; K.pneumoniae ATCC 13883) | MIC100 (P. aeruginosa PA2; PA2, 24 h) | MIC100 (P. aeruginosa PA1; PA1, 24 h) | MIC100 (K.pneumoniae ATCC 13883; ATCC 13883, 24 h)
CC[C@H](C)[C@H](NC(=O)COCCOCCNC(=O)[C@H](Cc1c[nH]cn1)NC(=O)CCNC(=O)CCCCCN)C(=O)N[C@@H](CCCCN)C(=O)N[C@@H](CCCCN)C(=O)N[C@H](C(=O)N[C@@H](CC(C)C)C(=O)N[C@@H](CO)C(=O)N[C@@H](CCCCN)C(=O)N[C@H](C(=O)N[C@@H](CCCCN)C(=O)N[C@@H](CCCCN)C(=O)N[C@@H](CC(C)C)C(=O)N[C@@H](CC(C)C)C(N)=O)[C@@H](C)CC)[C@@H](C)CC [AHX-CAR-PEG-DK5] (H-[Ahx][βAla]H[AEEA]IKKILSKIKKLL-NH2) | >50 µg/mL | 6.25 µg/mL (≈ 3.31 µM) | >50 µg/mL | >50 µg/mL | >50 µg/mL |  |  |  |  |  |  | 
CC[C@H](C)[C@H](NC(=O)CCCCCN)C(=O)N[C@@H](CCCCN)C(=O)N[C@@H](CCCCN)C(=O)N[C@H](C(=O)N[C@@H](CC(C)C)C(=O)N[C@@H](CO)C(=O)N[C@@H](CCCCN)C(=O)N[C@H](C(=O)N[C@@H](CCCCN)C(=O)N[C@@H](CCCCN)C(=O)N[C@@H](CC(C)C)C(=O)N[C@@H](CC(C)C)C(N)=O)[C@@H](C)CC)[C@@H](C)CC [AHX-DK5] (H-[Ahx]IKKILSKIKKLL-NH2) | 50 µg/mL (≈ 32.5 µM) | 0.78 µg/mL (≈ 0.507 µM) | 25 µg/mL | 12.5 µg/mL (≈ 8.13 µM) | 50 µg/mL (≈ 32.5 µM) |  |  |  |  |  |  | 
CCCCC(=O)NCCC(=O)N[C@@H](Cc1c[nH]cn1)C(=O)NCCOCCOCC(=O)N[C@H](C(=O)N[C@@H](CCCCN)C(=O)N[C@@H](CCCCN)C(=O)N[C@H](C(=O)N[C@@H](CC(C)C)C(=O)N[C@@H](CO)C(=O)N[C@@H](CCCCN)C(=O)N[C@H](C(=O)N[C@@H](CCCCN)C(=O)N[C@@H](CCCCN)C(=O)N[C@@H](CC(C)C)C(=O)N[C@@H](CC(C)C)C(N)=O)[C@@H](C)CC)[C@@H](C)CC)[C@@H](C)CC [C5-CAR-PEG-DK5] ({Pentanoyl-βAla}-H[AEEA]IKKILSKIKKLL-NH2) | >50 µg/mL | 6.25 µg/mL (≈ 3.36 µM) | >50 µg/mL | >50 µg/mL | >50 µg/mL |  |  |  |  |  |  | 
CCCCCCCCCCCC(=O)NCCC(=O)N[C@@H](Cc1c[nH]cn1)C(=O)NCCOCCOCC(=O)N[C@H](C(=O)N[C@@H](CCCCN)C(=O)N[C@@H](CCCCN)C(=O)N[C@H](C(=O)N[C@@H](CC(C)C)C(=O)N[C@@H](CO)C(=O)N[C@@H](CCCCN)C(=O)N[C@H](C(=O)N[C@@H](CCCCN)C(=O)N[C@@H](CCCCN)C(=O)N[C@@H](CC(C)C)C(=O)N[C@@H](CC(C)C)C(N)=O)[C@@H](C)CC)[C@@H](C)CC)[C@@H](C)CC [C12-CAR-PEG-DK5] ({Lauroyl-βAla}-H[AEEA]IKKILSKIKKLL-NH2) | 12.5 µg/mL (≈ 6.38 µM) | 3.13 µg/mL (≈ 1.6 µM) |  | 12.5 µg/mL (≈ 6.38 µM) | >50 µg/mL | 12.5 µg/mL (≈ 6.38 µM) | 25 µg/mL (≈ 12.8 µM) | 12.5 µg/mL (≈ 6.38 µM) | 12.5 µg/mL (≈ 6.38 µM) |  |  | 
CCCCCCCCCCCCCCCC(=O)NCCC(=O)N[C@@H](Cc1c[nH]cn1)C(=O)NCCOCCOCC(=O)N[C@H](C(=O)N[C@@H](CCCCN)C(=O)N[C@@H](CCCCN)C(=O)N[C@H](C(=O)N[C@@H](CC(C)C)C(=O)N[C@@H](CO)C(=O)N[C@@H](CCCCN)C(=O)N[C@H](C(=O)N[C@@H](CCCCN)C(=O)N[C@@H](CCCCN)C(=O)N[C@@H](CC(C)C)C(=O)N[C@@H](CC(C)C)C(N)=O)[C@@H](C)CC)[C@@H](C)CC)[C@@H](C)CC [C16-CAR-PEG-DK5] ({Palmitoyl-βAla}-H[AEEA]IKKILSKIKKLL-NH2) | 12.5 µg/mL (≈ 6.2 µM) | 12.5 µg/mL (≈ 6.2 µM) | 25 µg/mL | 25 µg/mL (≈ 12.4 µM) | >50 µg/mL |  |  |  |  |  |  | 
CC[C@H](C)[C@H](NC(=O)COCCOCCNC(=O)[C@H](Cc1c[nH]cn1)NC(=O)CCN)C(=O)N[C@@H](CCCCN)C(=O)N[C@@H](CCCCN)C(=O)N[C@H](C(=O)N[C@@H](CC(C)C)C(=O)N[C@@H](CO)C(=O)N[C@@H](CCCCN)C(=O)N[C@H](C(=O)N[C@@H](CCCCN)C(=O)N[C@@H](CCCCN)C(=O)N[C@@H](CC(C)C)C(=O)N[C@@H](CC(C)C)C(N)=O)[C@@H](C)CC)[C@@H](C)CC [CAR-PEG-DK5] (H-[βAla]H[AEEA]IKKILSKIKKLL-NH2; N-terminus and C-terminus assumed) | 3.9 µg/mL (≈ 2.19 µM) | 3.9 µg/mL (≈ 2.19 µM) | 50 µg/mL | 15.6 µg/mL (≈ 8.78 µM) | >50 µg/mL | >200 µg/mL |  |  |  | 100 µg/mL (≈ 56.3 µM) | 100 µg/mL (≈ 56.3 µM) | >200 µg/mL
CCCCC(=O)N[C@H](C(=O)N[C@@H](CCCCN)C(=O)N[C@@H](CCCCN)C(=O)N[C@H](C(=O)N[C@@H](CC(C)C)C(=O)N[C@@H](CO)C(=O)N[C@@H](CCCCN)C(=O)N[C@H](C(=O)N[C@@H](CCCCN)C(=O)N[C@@H](CCCCN)C(=O)N[C@@H](CC(C)C)C(=O)N[C@@H](CC(C)C)C(N)=O)[C@@H](C)CC)[C@@H](C)CC)[C@@H](C)CC [Compound C5-DK5] (Pentanoyl-IKKILSKIKKLL-NH2) | 25 µg/mL (≈ 16.6 µM) | 0.78 µg/mL (≈ 0.517 µM) | 10 µg/mL | 6.25 µg/mL (≈ 4.14 µM) | 12.5 µg/mL (≈ 8.29 µM) | 25 µg/mL (≈ 16.6 µM) | 25 µg/mL (≈ 16.6 µM) | 25 µg/mL (≈ 16.6 µM) | 50 µg/mL (≈ 33.2 µM) |  |  | 
CCCCCCCCCCCCCCCC(=O)N[C@H](C(=O)N[C@@H](CCCCN)C(=O)N[C@@H](CCCCN)C(=O)N[C@H](C(=O)N[C@@H](CC(C)C)C(=O)N[C@@H](CO)C(=O)N[C@@H](CCCCN)C(=O)N[C@H](C(=O)N[C@@H](CCCCN)C(=O)N[C@@H](CCCCN)C(=O)N[C@@H](CC(C)C)C(=O)N[C@@H](CC(C)C)C(N)=O)[C@@H](C)CC)[C@@H](C)CC)[C@@H](C)CC [Compound C16-DK5] (Palmitoyl-IKKILSKIKKLL-NH2) | 6.25 µg/mL (≈ 3.76 µM) | 3.13 µg/mL (≈ 1.88 µM) | >50 µg/mL | >50 µg/mL | >50 µg/mL |  |  |  |  |  |  | 
